ChEMBL document CHEMBL3414487, “Synthesis and biological activity of salinomycin conjugates with floxuridine” (Eur J Med Chem, 2015)
Converted amounts (≈) assume the structure as drawn.

Tests used:
Staphylococcus aureus [1] = assay: Antimicrobial activity against methicillin-resistant Staphylococcus aureus 456/11 after 18 hrs by two-fold serial microdilution method; assay type: functional; conditions: 456/11, 18 h
[2] = system: Staphylococcus epidermidis; assay: Antimicrobial activity against methicillin-resistant Staphylococcus epidermidis 468/11 after 18 hrs by two-fold serial microdilution method; assay type: functional; conditions: 468/11, 18 h
[3] = Antiproliferative activity against human LS180 cells assessed as growth inhibition after 72 hrs by SRB method; assay type: functional, cell-based; conditions: Homo sapiens, LS180, 72 h
[4] = system: Staphylococcus epidermidis; assay: Antimicrobial activity against Staphylococcus epidermidis ATCC 12228 after 18 hrs by two-fold serial microdilution method; assay type: functional; conditions: ATCC 12228, 18 h
[5] = Selectivity index, ratio of IC50 for mouse BALB/3T3 cells to IC50 for human LS180 cells; assay type: functional
[6] = Antiproliferative activity against human HL60 cells assessed as growth inhibition after 72 hrs by MTT assay; assay type: functional, cell-based; conditions: HL-60, 72 h
Staphylococcus aureus [7] = assay: Antimicrobial activity against methicillin-resistant Staphylococcus aureus 585/12 after 18 hrs by two-fold serial microdilution method; assay type: functional; conditions: 585/12, 18 h
[8] = system: Staphylococcus epidermidis; assay: Antimicrobial activity against methicillin-resistant Staphylococcus epidermidis 467/11 after 18 hrs by two-fold serial microdilution method; assay type: functional; conditions: 467/11, 18 h
[9] = system: Staphylococcus epidermidis; assay: Antimicrobial activity against methicillin-resistant Staphylococcus epidermidis 489/11 after 18 hrs by two-fold serial microdilution method; assay type: functional; conditions: 489/11, 18 h
Staphylococcus aureus [10] = assay: Antimicrobial activity against Staphylococcus aureus ATCC 25923 after 18 hrs by two-fold serial microdilution method; assay type: functional; conditions: ATCC 25923, 18 h
Staphylococcus aureus [11] = assay: Antimicrobial activity against methicillin-resistant Staphylococcus aureus 573/12 after 18 hrs by two-fold serial microdilution method; assay type: functional; conditions: 573/12, 18 h
LoVo [12] = assay: Selectivity index, ratio of IC50 for mouse BALB/3T3 cells to IC50 for human LoVo cells; assay type: functional
[13] = Antiproliferative activity against human vincristine-resistant HL60/Vinc cells assessed as growth inhibition after 72 hrs by MTT assay; assay type: functional; conditions: Homo sapiens, HL60/vinc, 72 h
BALB/3T3 = assay: Antiproliferative activity against mouse BALB/3T3 cells assessed as growth inhibition after 72 hrs by SRB method; assay type: cell-based; conditions: BALB/3T3, 72 h
Staphylococcus aureus [14] = assay: Antimicrobial activity against Staphylococcus aureus […] 4163 after 18 hrs by two-fold serial microdilution method; assay type: functional
LoVo [15] = assay: Resistance index, ratio of IC50 for human LoVo/DX cells to IC50 for human LoVo cells
[16] = system: Staphylococcus epidermidis; assay: Antimicrobial activity against methicillin-resistant Staphylococcus epidermidis 488/11 after 18 hrs by two-fold serial microdilution method; assay type: functional; conditions: 488/11, 18 h
Staphylococcus aureus [17] = assay: Antimicrobial activity against Staphylococcus aureus ATCC 29213 after 18 hrs by two-fold serial microdilution method; assay type: functional; conditions: ATCC 29213, 18 h
LoVo [18] = assay: Antiproliferative activity against human LoVo cells assessed as growth inhibition after 72 hrs by SRB method; assay type: functional, cell-based; conditions: Homo sapiens, LoVo, 72 h
[19] = Selectivity index, ratio of IC50 for mouse BALB/3T3 cells to IC50 for human SW707 cells; assay type: functional
[20] = Selectivity index, ratio of IC50 for mouse BALB/3T3 cells to IC50 for human LoVo/DX cells; assay type: functional
[21] = system: Staphylococcus epidermidis; assay: Antimicrobial activity against methicillin-resistant Staphylococcus epidermidis 470/11 after 18 hrs by two-fold serial microdilution method; assay type: functional; conditions: 470/11, 18 h
[22] = system: Staphylococcus epidermidis; assay: Antimicrobial activity against methicillin-resistant Staphylococcus epidermidis 460/11 after 18 hrs by two-fold serial microdilution method; assay type: functional; conditions: 460/11, 18 h
[23] = Antiproliferative activity against human doxorubicin-resistant LoVo/DX cells assessed as growth inhibition after 72 hrs by SRB method; assay type: functional, cell-based
[24] = Antiproliferative activity against human SW707 cells assessed as growth inhibition after 72 hrs by SRB method; assay type: functional, cell-based; conditions: Homo sapiens, SW707, 72 h
Staphylococcus aureus [25] = assay: Antimicrobial activity against Staphylococcus aureus ATCC 6538 after 18 hrs by two-fold serial microdilution method; assay type: functional; conditions: ATCC 6538, 18 h
[26] = system: Staphylococcus epidermidis; assay: Antimicrobial activity against methicillin-resistant Staphylococcus epidermidis 461/11 after 18 hrs by two-fold serial microdilution method; assay type: functional; conditions: 461/11, 18 h
HT-29 [27] = assay: Antiproliferative activity against human HT-29 cells assessed as growth inhibition after 72 hrs by SRB method; assay type: functional, cell-based; conditions: Homo sapiens, HT-29, 72 h
Staphylococcus aureus [28] = assay: Antimicrobial activity against methicillin-resistant Staphylococcus aureus 537/12 after 18 hrs by two-fold serial microdilution method; assay type: functional; conditions: 537/12, 18 h
[29] = system: Staphylococcus epidermidis; assay: Antimicrobial activity against methicillin-resistant Staphylococcus epidermidis 459/11 after 18 hrs by two-fold serial microdilution method; assay type: functional; conditions: 459/11, 18 h
Staphylococcus aureus [30] = assay: Antimicrobial activity against methicillin-resistant Staphylococcus aureus 572/12 after 18 hrs by two-fold serial microdilution method; assay type: functional; conditions: 572/12, 18 h
Staphylococcus aureus [31] = assay: Antimicrobial activity against methicillin-resistant Staphylococcus aureus 522/12 after 18 hrs by two-fold serial microdilution method; assay type: functional; conditions: 522/12, 18 h
HL-60 [32] = assay: Resistance index, ratio of IC50 for human HL60/Vinc cells to IC50 for human HL60 cells
HL-60 [33] = assay: Selectivity index, ratio of IC50 for mouse BALB/3T3 cells to IC50 for human HL60 cells; assay type: functional
Staphylococcus aureus [34] = assay: Antimicrobial activity against methicillin-resistant Staphylococcus aureus 586/12 after 18 hrs by two-fold serial microdilution method; assay type: functional; conditions: 586/12, 18 h
Staphylococcus aureus [35] = assay: Antimicrobial activity against methicillin-resistant Staphylococcus aureus 514/11 after 18 hrs by two-fold serial microdilution method; assay type: functional; conditions: 514/11, 18 h
Staphylococcus aureus [36] = assay: Antimicrobial activity against methicillin-resistant Staphylococcus aureus 452/11 after 18 hrs by two-fold serial microdilution method; assay type: functional; conditions: 452/11, 18 h
HT-29 [37] = assay: Selectivity index, ratio of IC50 for mouse BALB/3T3 cells to IC50 for human HT-29 cells; assay type: functional
[38] = Selectivity index, ratio of IC50 for mouse BALB/3T3 cells to IC50 for human HL60/Vinc cells; assay type: functional
Staphylococcus aureus [39] = assay: Antimicrobial activity against methicillin-resistant Staphylococcus aureus 462/11 after 18 hrs by two-fold serial microdilution method; assay type: functional; conditions: 462/11, 18 h
[40] = system: Staphylococcus epidermidis; assay: Antimicrobial activity against Staphylococcus epidermidis ATCC 35984 after 18 hrs by two-fold serial microdilution method; assay type: functional; conditions: ATCC 35984, 18 h
[41] = system: Staphylococcus epidermidis; assay: Antimicrobial activity against methicillin-resistant Staphylococcus epidermidis 469/11 after 18 hrs by two-fold serial microdilution method; assay type: functional; conditions: 469/11, 18 h
[42] = system: Staphylococcus epidermidis; assay: Antimicrobial activity against methicillin-resistant Staphylococcus epidermidis 466/11 after 18 hrs by two-fold serial microdilution method; assay type: functional; conditions: 466/11, 18 h

## O=c1[nH]cc(F)c(=O)[nH]1 [FLUOROURACIL]
Staphylococcus aureus [1]
  MIC: 3.85 µM (≈ 0.501 µg/mL)
[2]
  MIC: 0.48 µM (≈ 0.0624 µg/mL)
[3]
  IC50: 38.9 µM
[4]
  MIC: 3.85 µM (≈ 0.501 µg/mL)
[5]
  Selectivity Index: 0.08
[6]
  IC50: 22.5 µM
Staphylococcus aureus [7]
  MIC: 3.85 µM (≈ 0.501 µg/mL)
[8]
  MIC: 0.48 µM (≈ 0.0624 µg/mL)
[9]
  MIC: 0.48 µM (≈ 0.0624 µg/mL)
Staphylococcus aureus [10]
  MIC: 1.92 µM (≈ 0.25 µg/mL)
Staphylococcus aureus [11]
  MIC: 3.85 µM (≈ 0.501 µg/mL)
LoVo [12]
  Selectivity Index: 0.69
[13]
  IC50: 21.2 µM
BALB/3T3
  IC50: 3.23 µM
Staphylococcus aureus [14]
  MIC: 1.92 µM (≈ 0.25 µg/mL)
LoVo [15]
  Ratio IC50: 1.28
[16]
  MIC: 1.92 µM (≈ 0.25 µg/mL)
Staphylococcus aureus [17]
  MIC: 3.85 µM (≈ 0.501 µg/mL)
LoVo [18]
  IC50: 4.69 µM
[19]
  Selectivity Index: 0.16
[20]
  Selectivity Index: 0.54
[21]
  MIC: 0.48 µM (≈ 0.0624 µg/mL)
[22]
  MIC: 1.92 µM (≈ 0.25 µg/mL)
[23]
  IC50: 6 µM
[24]
  IC50: 20.5 µM
Staphylococcus aureus [25]
  MIC: 3.85 µM (≈ 0.501 µg/mL)
[26]
  MIC: 0.96 µM (≈ 0.125 µg/mL)
HT-29 [27]
  IC50: 25.1 µM
Staphylococcus aureus [28]
  MIC: 7.69 µM (≈ 1 µg/mL)
[29]
  MIC: 3.85 µM (≈ 0.501 µg/mL)
Staphylococcus aureus [30]
  MIC: 3.85 µM (≈ 0.501 µg/mL)
Staphylococcus aureus [31]
  MIC: 7.69 µM (≈ 1 µg/mL)
HL-60 [32]
  Ratio IC50: 0.94
HL-60 [33]
  Selectivity Index: 0.14
Staphylococcus aureus [34]
  MIC: 3.85 µM (≈ 0.501 µg/mL)
Staphylococcus aureus [35]
  MIC: 3.85 µM (≈ 0.501 µg/mL)
Staphylococcus aureus [36]
  MIC: 3.85 µM (≈ 0.501 µg/mL)
HT-29 [37]
  Selectivity Index: 0.13
[38]
  Selectivity Index: 0.15
Staphylococcus aureus [39]
  MIC: 7.69 µM (≈ 1 µg/mL)
[40]
  MIC: 1.92 µM (≈ 0.25 µg/mL)
[41]
  MIC: 1.92 µM (≈ 0.25 µg/mL)
[42]
  MIC: 0.48 µM (≈ 0.0624 µg/mL)

## CC[C@@H](C(=O)[C@@H](C)[C@@H](O)[C@H](C)[C@@H]1O[C@@H]([C@@H](CC)C(=O)O)CC[C@@H]1C)[C@H]1O[C@]2(C=C[C@@H](O)[C@]3(CC[C@@](C)([C@H]4CC[C@](O)(CC)[C@H](C)O4)O3)O2)[C@H](C)C[C@@H]1C [SALINOMYCIN]
Staphylococcus aureus [1]
  MIC: 1.33 µM (≈ 0.999 µg/mL)
[2]
  MIC: 2.66 µM (≈ 2 µg/mL)
[3]
  IC50: 0.61 µM
[4]
  MIC: 2.66 µM (≈ 2 µg/mL)
[5]
  Selectivity Index: 15.3
[6]
  IC50: 0.29 µM
Staphylococcus aureus [7]
  MIC: 2.66 µM (≈ 2 µg/mL)
[8]
  MIC: 2.66 µM (≈ 2 µg/mL)
[9]
  MIC: 2.66 µM (≈ 2 µg/mL)
Staphylococcus aureus [10]
  MIC: 2.66 µM (≈ 2 µg/mL)
Staphylococcus aureus [11]
  MIC: 1.33 µM (≈ 0.999 µg/mL)
LoVo [12]
  Selectivity Index: 25.92
[13]
  IC50: 2.09 µM
BALB/3T3
  IC50: 9.33 µM
Staphylococcus aureus [14]
  MIC: 2.66 µM (≈ 2 µg/mL)
LoVo [15]
  Ratio IC50: 2.11
[16]
  MIC: 2.66 µM (≈ 2 µg/mL)
Staphylococcus aureus [17]
  MIC: 2.66 µM (≈ 2 µg/mL)
LoVo [18]
  IC50: 0.36 µM
[19]
  Selectivity Index: 5.39
[20]
  Selectivity Index: 12.28
[21]
  MIC: 2.66 µM (≈ 2 µg/mL)
[22]
  MIC: 2.66 µM (≈ 2 µg/mL)
[23]
  IC50: 0.76 µM
[24]
  IC50: 1.73 µM
Staphylococcus aureus [25]
  MIC: 2.66 µM (≈ 2 µg/mL)
[26]
  MIC: 2.66 µM (≈ 2 µg/mL)
HT-29 [27]
  IC50: 1.03 µM
Staphylococcus aureus [28]
  MIC: 2.66 µM (≈ 2 µg/mL)
[29]
  MIC: 2.66 µM (≈ 2 µg/mL)
Staphylococcus aureus [30]
  MIC: 1.33 µM (≈ 0.999 µg/mL)
Staphylococcus aureus [31]
  MIC: 2.66 µM (≈ 2 µg/mL)
HL-60 [32]
  Ratio IC50: 7.21
HL-60 [33]
  Selectivity Index: 32.17
Staphylococcus aureus [34]
  MIC: 2.66 µM (≈ 2 µg/mL)
Staphylococcus aureus [35]
  MIC: 2.66 µM (≈ 2 µg/mL)
Staphylococcus aureus [36]
  MIC: 1.33 µM (≈ 0.999 µg/mL)
HT-29 [37]
  Selectivity Index: 9.06
[38]
  Selectivity Index: 4.46
Staphylococcus aureus [39]
  MIC: 2.66 µM (≈ 2 µg/mL)
[40]
  MIC: 2.66 µM (≈ 2 µg/mL)
[41]
  MIC: 2.66 µM (≈ 2 µg/mL)
[42]
  MIC: 2.66 µM (≈ 2 µg/mL)
